Patent US20240409536A1, “COMPOUNDS AND METHODS FOR MODULATING SPLICING” (REMIX THERAPEUTICS INC., priority 2021, published 2024)

Legend:
[1] = system: HTT mRNA; test: Gene panel canonical junction qPCR assay, HTT CJ mRNA decrease; assay type: cell-based, human; details: Homo sapiens, decrease in CJ mRNA levels, read-out: HTT IC50
Procedure: (§1) Compounds described herein were used to modulate RNA transcript abundance in cells. The expression of a target mRNA was measured by detecting the formation of an exon-exon junction in the canonical transcript (CJ). A compound mediated exon-inclusion event was detected by observing an increase in formation of a new junction with an alternative exon (AJ). Real-time qPCR assays were used to detect these splicing switches and interrogate the potency of various compounds towards different target genes. A high-throughput real time quantitative PCR (RT-qPCR) assay was developed to measure these two isoforms of the mRNA (CJ and AJ) for exemplary genes, such as HTT, SMN2, and MYB, together with a control housekeeping gene, GAPDH or GUSB or PPIA, used for normalization. Briefly, the A673 or K562 cell line was treated with various compounds described herein (e.g., compounds of Formula (I), (I), or (III)). After treatment, the levels of the HTT, MYB, or SMN2 mRNA targets were determined from each sample of cell lysate by cDNA synthesis followed by qPCR.
(§2) The data analysis was performed by first determining the ΔCt vs the housekeeper gene. This ΔCt was then normalized against the DMSO control (ΔΔCt) and converted to RQ (relative quantification) using the 2^(−ΔΔCt) equation. The RQ were then converted to a percentage response by arbitrarily setting an assay window of 3.5 and 4.0 ΔCt for HTT-CJ and MYB-CJ respectively and an assay window of 9 and 3 ΔCt for HTT-AJ and MYB-AJ in 96 well format (50,000 K562 cells/well and 15,000 A673 cells per well) and an assay window of 3 and 4 ΔCt for HTT-CJ and MYB-CJ respectively and an assay window of 5 and 3 ΔCt for HTT-AJ and MYB-AJ respectively in 384 well format (8,000 K562 cells/well example). […] The percentage response was then fitted to the 4 parametric logistic equation to evaluate the concentration dependence of compound treatment. The increase in AJ mRNA is reported as AC50 (compound concentration having […] in AJ increase) while the decrease in CJ mRNA levels is reported as IC50 (compound concentration having 50) response in CJ decrease).
(§3) Additional studies were carried out for a larger panel of genes using the protocol provided above. The junction between flanking upstream and downstream exons was used to design canonical junction qPCR assays. At least one of the forward primer, reverse primer or the CY5-labeled 5′ nuclease probe (with 3′ quencher such as ZEN/Iowa Black FQ) was designed to overlap with the exon junction to capture the CJ mRNA transcript. BLAST was used to confirm the specificity of the probeset and parameters such as melting temperature, GC content, amplicon size, and primer dimer formation are considered during their design. Data for the decrease in CJ mRNA levels for four exemplary genes (HTT, SMN2, MYB, and Target C) analyzed in this panel are reported as IC50 (compound concentration having […] in CJ decrease).
(§4) A summary of the results from the panel is illustrated in Tables 5A and 51B, wherein “A” represents an IC50 of less than 100 nM; “B” represents an IC50 of between 100 nM and 1 μM; and “C” represents an IC50 of between 1 μM and 10 μM; and “D” represents an IC50 of greater than 10 μM.

[2] = system: MYB mRNA; test: Gene panel canonical junction qPCR assay, MYB CJ mRNA decrease; assay type: cell-based, human; details: Homo sapiens, decrease in CJ mRNA levels, read-out: MYB IC50
Procedure: as §1, §2, §3, §4

[3] = system: SMN2 mRNA; test: Gene panel canonical junction qPCR assay, SMN2 CJ mRNA decrease; assay type: cell-based, human; details: Homo sapiens, decrease in CJ mRNA levels, read-out: SMN2 IC50
Procedure: as §1, §2, §3, §4

[4] = system: Target C mRNA; test: Gene panel canonical junction qPCR assay, Target C CJ mRNA decrease; assay type: cell-based; details: Homo sapiens, decrease in CJ mRNA levels, read-out: Target C IC50
Procedure: as §1, §2, §3, §4

| Compound | IC50 [1] | IC50 [2] | IC50 [3] | IC50 [4] |
| --- | --- | --- | --- | --- |
| Cc1cn2cc(-c3cc(F)c(C(=O)N[C@H]4CCN[C@H](C)C4)s3)nc2c(C)n1 [Compound 583] | > 10000 nM | 1000 to 10000 nM | > 10000 nM | > 10000 nM |
| Cn1cc2c(F)cc(NC(=O)c3sc(C4CCNCC4)cc3F)cc2n1 [Compound 656] | 100 to 1000 nM | < 100 nM | 1000 to 10000 nM | – |
| Cc1cn2nc(NC(=O)c3sc(N4CCNC(C)C4)cc3F)cc2c(C)n1 (stereo not drawn) [Compound 643] | > 10000 nM | > 10000 nM | > 10000 nM | > 10000 nM |
| Cc1cn2nc(NC(=O)c3sc([C@@H]4CCN[C@@H](C)C4)cc3F)cc(C)c2n1 [Compound 579] | < 100 nM | < 100 nM | 100 to 1000 nM | 100 to 1000 nM |
| Cc1cn2nc(NC(=O)c3sc(C4CCNCC4)cc3F)cc2c(C)n1 [Compound 664] | > 10000 nM | > 10000 nM | > 10000 nM | – |
| Cc1cn2cc(NC(=O)c3sc([C@H]4CCN[C@H](C)C4)cc3F)cc(C(F)(F)F)c2n1 [Compound 669] | 100 to 1000 nM | < 100 nM | > 10000 nM | – |
| Cc1cn2cc(NC(=O)c3cc(Cl)c(C4CCNCC4)s3)cc(F)c2n1 [Compound 666] | 1000 to 10000 nM | 100 to 1000 nM | 1000 to 10000 nM | – |

Now from value to molecule:

| IC50 [1] | IC50 [2] | IC50 [3] | IC50 [4] | Compound |
| --- | --- | --- | --- | --- |
| 100 to 1000 nM | 100 to 1000 nM | 1000 to 10000 nM | – | Cc1cn2cc(NC(=O)c3sc(C4CCNCC4)c(C)c3F)cc(F)c2n1 [Compound 649] |
| 100 to 1000 nM | 100 to 1000 nM | 1000 to 10000 nM | 100 to 1000 nM | Cc1cn2nc(NC(=O)c3sc([C@H]4CCN[C@@H](C)C4)cc3F)cc(C)c2n1 [Compound 577] |
| 1000 to 10000 nM | 100 to 1000 nM | > 10000 nM | – | Cc1cn2cc(-c3sc(C(=O)NC4CCNCC4)c(Cl)c3C#N)cc(F)c2n1 [Compound 671] |
| 100 to 1000 nM | < 100 nM | 1000 to 10000 nM | 1000 to 10000 nM | Cc1cn2cc(NC(=O)c3sc([C@@H]4CCN[C@H](C)C4)cc3F)cc(F)c2n1 [Compound 589] |
| 1000 to 10000 nM | 100 to 1000 nM | > 10000 nM | 1000 to 10000 nM | Cc1cn2cc(NC(=O)c3sc(N4CC(C)(C)NC(C)(C)C4)cc3F)cc(F)c2n1 [Compound 606] |
| 1000 to 10000 nM | 100 to 1000 nM | 1000 to 10000 nM | – | Cc1cn2cc(NC(=O)c3sc(C4C[C@@H](C)N[C@@H](C)C4)cc3F)cc(F)c2n1 (stereo partly drawn) [Compound 620] |
